Reference: the supplement of paper PMC10307832

How the values were obtained:
Test in all cases: relative viability (nuclei count vs DMSO), 5 days (fraction); higher = more cells survive
HOP-62 = tested on: HOP-62
In short: (§1)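 Lung cancer cell lines, seeded in 1536-well plates, were treated the following day by pin tool with a single drug or with five library-drug doses (not always all listed) in √10 steps on top of a fixed anchor-drug dose. Cells were fixed and nuclei stained in one step after 5 days, and nuclei were counted. Relative viability is the nuclei count for treated wells divided by that for vehicle wells, reported as medians of duplicate plates.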

HARA = tested on: HARA
In short: as §1

NCI-H1755 = tested on: NCI-H1755
In short: as §1

UMC-11 = tested on: UMC-11
In short: as §1

NCI-H727 = tested on: NCI-H727
In short: as §1

NCI-H1437 = tested on: NCI-H1437
In short: as §1

EMC-BAC-2 = tested on: EMC-BAC-2
In short: as §1

LK-2 = tested on: LK-2
In short: as §1

NCI-H1651 = tested on: NCI-H1651
In short: as §1

PC-3 [JPC-3] = tested on: PC-3 [JPC-3]
In short: as §1

NCI-H1563 = tested on: NCI-H1563
In short: as §1

ABC-1 = tested on: ABC-1
In short: as §1

NCI-H3122 = tested on: NCI-H3122
In short: as §1

NCI-H1734 = tested on: NCI-H1734
In short: as §1

NCI-H441 = tested on: NCI-H441
In short: as §1

COR-L23 = tested on: COR-L23
In short: as §1

NCI-H2347 = tested on: NCI-H2347
In short: as §1

NCI-H596 = tested on: NCI-H596
In short: as §1

RERF-LC-KJ = tested on: RERF-LC-KJ
In short: as §1

SK-LU-1 = tested on: SK-LU-1
In short: as §1

NCI-H1650 = tested on: NCI-H1650
In short: as §1

CAL-12T = tested on: CAL-12T
In short: as §1

`CN1CCN(CCOc2cc(OC3CCOCC3)c3c(Nc4c(Cl)ccc5c4OCO5)ncnc3c2)CC1` [Saracatinib] + CCNC(=O)c1noc(-c2cc(C(C)C)c(O)cc2O)c1-c1ccc(CN2CCOCC2)cc1 [Luminespib] (partner 0.01 µM) showed a relative viability (HOP-62; first compound 0.02 µM) of 0.864, a relative viability (HOP-62; first compound 0.2 µM) of 0.852 and a relative viability (HOP-62; first compound 0.6325 µM) of 1.04. It also gave a relative viability (HOP-62; first compound 2 µM) of 1.02, a relative viability (HARA; first compound 0.02 µM) of 0.686 and a relative viability (HARA; first compound 0.2 µM) of 0.606. For the same compound, the relative viability (HARA; first compound 0.6325 µM) was 0.485, the relative viability (HARA; first compound 2 µM) was 0.367 and the relative viability (NCI-H1755; first compound 0.02 µM) was 0.456. The relative viability (NCI-H1755; first compound 0.2 µM) was 0.329, the relative viability (NCI-H1755; first compound 0.6325 µM) was 0.447 and the relative viability (NCI-H1755; first compound 2 µM) was 0.414. For the same compound, the relative viability (UMC-11; first compound 0.02 µM) was 0.96, the relative viability (UMC-11; first compound 0.6325 µM) was 0.863 and the relative viability (UMC-11; first compound 2 µM) was 0.624. It also gave a relative viability (NCI-H727; first compound 0.02 µM) of 0.242, a relative viability (NCI-H727; first compound 0.2 µM) of 0.316 and a relative viability (NCI-H727; first compound 0.6325 µM) of 0.266. It also gave a relative viability (NCI-H727; first compound 2 µM) of 0.239, a relative viability (NCI-H1437; first compound 0.02 µM) of 1.13 and a relative viability (NCI-H1437; first compound 0.2 µM) of 1.13. For the same compound, the relative viability (NCI-H1437; first compound 0.6325 µM) was 1.17, the relative viability (NCI-H1437; first compound 2 µM) was 1.14 and the relative viability (EMC-BAC-2; first compound 0.02 µM) was 1.21. For the same compound, the relative viability (EMC-BAC-2; first compound 0.2 µM) was 0.894, the relative viability (EMC-BAC-2; first compound 0.6325 µM) was 1.16 and the relative viability (EMC-BAC-2; first compound 2 µM) was 0.978. The relative viability (LK-2; first compound 0.02 µM) was 0.218, the relative viability (LK-2; first compound 0.2 µM) was 0.209 and the relative viability (LK-2; first compound 0.6325 µM) was 0.199. The relative viability (LK-2; first compound 2 µM) was 0.186, the relative viability (NCI-H1651; first compound 0.02 µM) was 0.912 and the relative viability (NCI-H1651; first compound 0.2 µM) was 0.516. It also gave a relative viability (NCI-H1651; first compound 0.6325 µM) of 0.965, a relative viability (NCI-H1651; first compound 2 µM) of 0.837 and a relative viability (PC-3 [JPC-3]; first compound 0.02 µM) of 0.732. It also gave a relative viability (PC-3 [JPC-3]; first compound 0.2 µM) of 0.655, a relative viability (PC-3 [JPC-3]; first compound 0.6325 µM) of 0.675 and a relative viability (PC-3 [JPC-3]; first compound 2 µM) of 0.537. It also gave a relative viability (NCI-H1563; first compound 0.02 µM) of 0.481, a relative viability (NCI-H1563; first compound 0.2 µM) of 0.488 and a relative viability (NCI-H1563; first compound 0.6325 µM) of 0.537. The relative viability (NCI-H1563; first compound 2 µM) was 0.525, the relative viability (ABC-1; first compound 0.02 µM) was 0.721 and the relative viability (ABC-1; first compound 0.2 µM) was 0.43. The relative viability (ABC-1; first compound 0.6325 µM) was 0.599, the relative viability (ABC-1; first compound 2 µM) was 0.766 and the relative viability (NCI-H3122; first compound 0.02 µM) was 0.0855. The relative viability (NCI-H3122; first compound 0.2 µM) was 0.103, the relative viability (NCI-H3122; first compound 0.6325 µM) was 0.0549 and the relative viability (NCI-H3122; first compound 2 µM) was 0.076. It also gave a relative viability (NCI-H1734; first compound 0.02 µM) of 0.224, a relative viability (NCI-H1734; first compound 0.6325 µM) of 0.213 and a relative viability (NCI-H1734; first compound 2 µM) of 0.181. For the same compound, the relative viability (NCI-H441; first compound 0.02 µM) was 0.44, the relative viability (NCI-H441; first compound 0.2 µM) was 0.268 and the relative viability (NCI-H441; first compound 0.6325 µM) was 0.286. For the same compound, the relative viability (NCI-H441; first compound 2 µM) was 0.247, the relative viability (COR-L23; first compound 0.02 µM) was 0.694 and the relative viability (COR-L23; first compound 0.2 µM) was 0.605. It also gave a relative viability (COR-L23; first compound 0.6325 µM) of 0.575, a relative viability (COR-L23; first compound 2 µM) of 0.558 and a relative viability (NCI-H2347; first compound 0.02 µM) of 0.372. It also gave a relative viability (NCI-H2347; first compound 0.2 µM) of 0.411, a relative viability (NCI-H2347; first compound 0.6325 µM) of 0.774 and a relative viability (NCI-H2347; first compound 2 µM) of 0.416. It also gave a relative viability (NCI-H596; first compound 0.02 µM) of 1.01, a relative viability (NCI-H596; first compound 0.2 µM) of 0.74 and a relative viability (NCI-H596; first compound 0.6325 µM) of 0.84. The relative viability (NCI-H596; first compound 2 µM) was 0.715, the relative viability (RERF-LC-KJ; first compound 0.02 µM) was 1.27 and the relative viability (RERF-LC-KJ; first compound 0.2 µM) was 1.38. It also gave a relative viability (RERF-LC-KJ; first compound 0.6325 µM) of 1.29, a relative viability (RERF-LC-KJ; first compound 2 µM) of 1.16 and a relative viability (SK-LU-1; first compound 0.02 µM) of 0.232. The relative viability (SK-LU-1; first compound 0.2 µM) was 0.139, the relative viability (SK-LU-1; first compound 0.6325 µM) was 0.145 and the relative viability (SK-LU-1; first compound 2 µM) was 0.129. It also gave a relative viability (NCI-H1650; first compound 0.02 µM) of 0.188, a relative viability (NCI-H1650; first compound 0.2 µM) of 0.187 and a relative viability (NCI-H1650; first compound 0.6325 µM) of 0.188. For the same compound, the relative viability (NCI-H1650; first compound 2 µM) was 0.221, the relative viability (CAL-12T; first compound 0.02 µM) was 0.335 and the relative viability (CAL-12T; first compound 0.2 µM) was 0.407. For the same compound, the relative viability (CAL-12T; first compound 0.6325 µM) was 0.365 and the relative viability (CAL-12T; first compound 2 µM) was 0.268.
